Test results: ChEMBL document CHEMBL5352461, “Discovery of the novel Benzo[b]thiophene 1,1-dioxide derivatives as a potent STAT3 inhibitor against idiopathic pulmonary fibrosis” (Eur J Med Chem, 2023)
Activity calls are given as the source filed them. The rule behind the calls is not given here.

Species: Mus musculus
Assay: Antifibrotic activity against bleomycin-induced C57BL/6 mouse lung fibrosis model assessed as reduction in F4/80+CD11b+ macrophage in lung incubated for 30 mins by flow cytometry analysis ( Rvb = 17.96%)
Format: functional
Set-up: scale not given: the % may be the effect or the level left
Conditions: 0.5 h
In the case of `COC(=O)c1ccc2c(c1)NC(=O)/C2=C(\Nc1ccc(N(C)C(=O)CN2CCN(C)CC2)cc1)c1ccccc1` [NINTEDANIB], the Activity is reported as 12.36%.

The compounds below were run on A549 (assay: Induction of morphological changes in TGF-beta1 induced human A549 cells assessed as appearance of spindle shape cells at 200 nM measured for 24 hrs by phase contrast microscopy analysis). Conditions: not given.
Format: functional, cell-based
`O=[N+]([O-])c1ccc2c(c1)S(=O)(=O)C=C2` was tested, and the Activity was “Active”.

Species: Mus musculus
Assay: Antifibrotic activity against bleomycin-induced C57BL/6 mouse lung fibrosis model assessed as reduction in CD4-CD69+ T cell in lung incubated for 30 mins by flow cytometry analysis ( Rvb = 6.54%)
Format: functional
Set-up: scale not given: the % may be the effect or the level left
Conditions: 0.5 h
Work on `COC(=O)c1ccc2c(c1)NC(=O)/C2=C(\Nc1ccc(N(C)C(=O)CN2CCN(C)CC2)cc1)c1ccccc1` [NINTEDANIB] yielded an Activity of 3.55%.

Species: Mus musculus
Assay: Antifibrotic activity against bleomycin-induced C57BL/6 mouse lung fibrosis model assessed as reduction in CD11c+MHC II+ in dendritic cells in lung incubated for 30 mins by flow cytometry analysis ( Rvb = 23.67 %)
Format: functional
Set-up: scale not given: the % may be the effect or the level left
Conditions: 0.5 h
With `COC(=O)c1ccc2c(c1)NC(=O)/C2=C(\Nc1ccc(N(C)C(=O)CN2CCN(C)CC2)cc1)c1ccccc1` [NINTEDANIB] the Activity was 20.61%.

These compounds were tested on NIH3T3 (assay: Antiproliferative activity against mouse NIH3T3 cells assessed as cell growth inhibition incubated for 24 to 72 hrs by CCK-8 assay). Conditions: not given.
Format: functional, cell-based
`O=C(CC1CCCC1)NC1CCN(C(=O)C2=Cc3ccccc3S2(=O)=O)CC1` was tested, and the IC50 was > 10000 nM. Compound `O=C(C1=Cc2ccccc2S1(=O)=O)N1CCN(S(=O)(=O)c2cccs2)CC1` has an IC50 of 3870 nM. Work on `Cc1ccc(CN2CCN(C(=O)C3=Cc4ccccc4S3(=O)=O)CC2)cc1` yielded an IC50 of 1660 nM. In the case of `O=C(Cc1ccccc1[N+](=O)[O-])NC1CCN(C(=O)C2=Cc3ccccc3S2(=O)=O)CC1`, the IC50 is reported as > 10000 nM. `COc1cc(CN2CCN(C(=O)C3=Cc4ccccc4S3(=O)=O)CC2)cc(OC)c1` gave an IC50 of 1110 nM. Compound `O=C(Cc1cccc(C2CC2)c1)N1CCN(C(=O)C2=Cc3ccccc3S2(=O)=O)CC1` has an IC50 of 1750 nM. In the case of `O=C(C1=Cc2ccccc2S1(=O)=O)N1CCN(C(=O)c2ccc(N3CCOCC3)nc2)CC1`, the IC50 is reported as 2490 nM. For `O=C(C1=Cc2ccccc2S1(=O)=O)N1CCN(Cc2ccc3ccccc3c2)CC1`, the IC50 was 6780 nM. In the case of `O=C(Cc1cccc2c1CCO2)NC1CCN(C(=O)C2=Cc3ccccc3S2(=O)=O)CC1`, the IC50 is reported as 3980 nM. In the case of `O=C(Cc1cccc([N+](=O)[O-])c1)NC1CCN(C(=O)C2=Cc3ccccc3S2(=O)=O)CC1`, the IC50 is reported as > 10000 nM. `O=C(C1=Cc2ccccc2S1(=O)=O)N1CCN(C(=O)c2scnc2Br)CC1` gave an IC50 of 810 nM. For `O=C(C1=Cc2ccccc2S1(=O)=O)N1CCN(C(=O)c2ccccn2)CC1`, the IC50 was 6020 nM. Compound `O=C(NC1CCN(C(=O)C2=Cc3ccccc3S2(=O)=O)CC1)c1cccc(Cl)c1` has an IC50 of 6760 nM. `CC(C)(C)OC(=O)n1cc(CN2CCN(C(=O)C3=Cc4ccccc4S3(=O)=O)CC2)c2ccccc21` was tested, and the IC50 was 5120 nM. With `O=C(C1=Cc2ccccc2S1(=O)=O)N1CCN(Cc2ccc(S(=O)(=O)C(F)(F)F)cc2)CC1` the IC50 was 1790 nM. `Cc1nc(C)c(C(=O)NC2CCN(C(=O)C3=Cc4ccccc4S3(=O)=O)CC2)nc1C` gave an IC50 of 2130 nM. For `O=C(C1=Cc2ccccc2S1(=O)=O)N1CCN(Cc2ccc(C(F)(F)F)cc2)CC1`, the IC50 was 1460 nM. In the case of `O=C(C1=Cc2ccccc2S1(=O)=O)N1CCN(C(=O)c2cccnc2)CC1`, the IC50 is reported as 8450 nM. Compound `O=C(CN1CCOCC1)NC1CCN(C(=O)C2=Cc3ccccc3S2(=O)=O)CC1` has an IC50 of 4850 nM. With `O=C(C1=Cc2ccccc2S1(=O)=O)N1CCN(S(=O)(=O)c2ccc3c(c2)CCO3)CC1` the IC50 was 8890 nM. `O=C(C1=Cc2ccccc2S1(=O)=O)N1CCN(Cc2ccc(-c3ccccc3)cc2)CC1` was tested, and the IC50 was 6470 nM. In the case of `O=C(C1=Cc2ccccc2S1(=O)=O)N1CCN(Cc2ccc(C(F)(F)F)o2)CC1`, the IC50 is reported as 1900 nM. For `O=C(C1=Cc2ccccc2S1(=O)=O)N1CCN(Cc2ccc(Cl)cc2)CC1`, the IC50 was 2010 nM. For `O=C(C1=Cc2ccccc2S1(=O)=O)N1CCN(Cc2ccccc2F)CC1`, the IC50 was 1000 nM. In the case of `O=C(C1=Cc2ccccc2S1(=O)=O)N1CCN(C(=O)c2cc(F)c(F)cc2F)CC1`, the IC50 is reported as 870 nM. `O=[N+]([O-])c1ccc2c(c1)S(=O)(=O)C=C2` gave an IC50 of 1180 nM. In the case of `O=C(C1=Cc2ccccc2S1(=O)=O)N1CCN(Cc2c(F)c(F)c(F)c(F)c2F)CC1`, the IC50 is reported as 1290 nM. `COC(=O)c1ccc(CN2CCN(C(=O)C3=Cc4ccccc4S3(=O)=O)CC2)cc1` showed an IC50 of 630 nM. `O=C(C1=Cc2ccccc2S1(=O)=O)N1CCN(C(=O)c2cc3ccccc3o2)CC1` gave an IC50 of 1220 nM. Compound `COS(=O)(=O)c1ccc(CN2CCN(C(=O)C3=Cc4ccccc4S3(=O)=O)CC2)cc1` has an IC50 of 930 nM. In the case of `COC(=O)c1cccc(CN2CCN(C(=O)C3=Cc4ccccc4S3(=O)=O)CC2)c1`, the IC50 is reported as 1400 nM. `COc1ccc(CN2CCN(C(=O)C3=Cc4ccccc4S3(=O)=O)CC2)cc1` gave an IC50 of 1780 nM. Work on `O=C(C1=Cc2ccccc2S1(=O)=O)N1CCN(Cc2cccc(C(F)(F)F)c2)CC1` yielded an IC50 of 1320 nM. In the case of `CN(C)c1ccc(CC(=O)NC2CCN(C(=O)C3=Cc4ccccc4S3(=O)=O)CC2)cc1`, the IC50 is reported as > 10000 nM. `COC(=O)c1ccc2c(c1)NC(=O)/C2=C(\Nc1ccc(N(C)C(=O)CN2CCN(C)CC2)cc1)c1ccccc1` [NINTEDANIB] showed an IC50 of 2410 nM. Work on `O=C(C1=Cc2ccccc2S1(=O)=O)N1CCN(C(=O)c2cccnc2N2CCOCC2)CC1` yielded an IC50 of 3420 nM. For `O=C(NC1CCN(C(=O)C2=Cc3ccccc3S2(=O)=O)CC1)c1ccc(Cl)cc1`, the IC50 was 6260 nM. With `COC(=O)c1sccc1S(=O)(=O)N1CCN(C(=O)C2=Cc3ccccc3S2(=O)=O)CC1` the IC50 was 4480 nM. In the case of `O=C(C1=Cc2ccccc2S1(=O)=O)N1CCN(Cc2cccc(F)c2)CC1`, the IC50 is reported as 950 nM. `Cc1noc(C)c1S(=O)(=O)N1CCN(C(=O)C2=Cc3ccccc3S2(=O)=O)CC1` gave an IC50 of 1470 nM. `O=C(C1=Cc2ccccc2S1(=O)=O)N1CCN(Cc2cc(F)c(F)c(F)c2F)CC1` showed an IC50 of 1260 nM. Compound `CC(C)(C)OC(=O)N1CCOC(C(=O)N2CCN(C(=O)C3=Cc4ccccc4S3(=O)=O)CC2)C1` (centres undefined) has an IC50 of 5230 nM. `O=C(C1=Cc2ccccc2S1(=O)=O)N1CCN(S(=O)(=O)c2cc(F)cc(F)c2)CC1` gave an IC50 of 1450 nM. In the case of `O=C(C1=Cc2ccccc2S1(=O)=O)N1CCN(S(=O)(=O)c2ccc3ccccc3c2)CC1`, the IC50 is reported as > 10000 nM. For `O=C(CC1CCCCC1)NC1CCN(C(=O)C2=Cc3ccccc3S2(=O)=O)CC1`, the IC50 was > 10000 nM. For `O=C(C1=Cc2ccccc2S1(=O)=O)N1CCN(S(=O)(=O)C2CCCCC2)CC1`, the IC50 was 8920 nM. `COC(=O)c1ccc(CN2CCN(C(=O)C3=Cc4ccccc4S3(=O)=O)CC2)cc1OC` was tested, and the IC50 was 1240 nM. With `Cc1cccc(CN2CCN(C(=O)C3=Cc4ccccc4S3(=O)=O)CC2)c1` the IC50 was 2550 nM. With `O=C(C1=Cc2ccccc2S1(=O)=O)N1CCN(C(=O)c2ccc(F)cn2)CC1` the IC50 was 2090 nM.

What follows are compounds tested on A549 (assay: Inhibition of cell migration in TGF-beta1 induced human A549 cells measured for 24 hrs by contrast-phase microscopic analysis). Conditions: not given.
Format: functional, cell-based
For `O=[N+]([O-])c1ccc2c(c1)S(=O)(=O)C=C2`, the inhibition was “Active”.
